Data set [1] in a line: Inhibition of Th17 cell differentiation in mouse CD4-positive T cells incubated for 3 days by ELISA method. The following applies: Th17, 72 h, read-out: pIC50 (converted). For orientation: An ELISA detects its analyte on a solid surface through an enzyme-linked reagent.
Data set [2] can be described thus: AUC (0 to 4 hrs) in C57BL/6 mouse brain at 2 mg/kg, ip by LC/MS/MS method. It is filed as ADME, organism-based. The arrangement: time < 4 hr, dose 2 mg/kg, route intraperitoneal.
Data set [3] in a line: AUC (0 to 4 hrs) in C57BL/6 mouse blood at 2 mg/kg, ip by LC/MS/MS method. It is filed as ADME, organism-based. On the set-up: time < 4 hr, dose 2 mg/kg, route intraperitoneal.
In data set [4] the target is T1, Nuclear receptor ROR-gamma (Homo sapiens, UniProt P51449).
T1 sequence (P51449 whole entry): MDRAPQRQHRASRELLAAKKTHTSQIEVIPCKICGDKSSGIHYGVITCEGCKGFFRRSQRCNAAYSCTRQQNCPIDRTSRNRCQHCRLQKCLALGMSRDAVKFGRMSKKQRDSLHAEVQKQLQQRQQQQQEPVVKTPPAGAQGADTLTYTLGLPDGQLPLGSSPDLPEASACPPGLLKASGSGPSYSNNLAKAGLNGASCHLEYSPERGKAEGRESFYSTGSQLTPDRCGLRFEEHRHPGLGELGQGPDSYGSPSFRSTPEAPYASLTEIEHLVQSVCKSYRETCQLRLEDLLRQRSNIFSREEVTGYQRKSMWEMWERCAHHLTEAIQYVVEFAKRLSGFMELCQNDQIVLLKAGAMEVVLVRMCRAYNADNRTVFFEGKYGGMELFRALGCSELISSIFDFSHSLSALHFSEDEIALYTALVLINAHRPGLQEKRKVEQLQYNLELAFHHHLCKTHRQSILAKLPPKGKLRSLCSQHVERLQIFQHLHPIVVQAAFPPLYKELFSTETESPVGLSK
The data set can be described thus: Inhibition of RORgammat (unknown origin) assessed as inhibition of agonist-induced response by FRET assay.

Data set [5] in a line: Half life in C57BL/6 mouse at 1 mg/kg, ip by LC/MS/MS method. It is filed as ADME, organism-based. The following applies: in vivo.
Data set [6] in a line: Blood clearance in C57BL/6 mouse at 1 mg/kg, ip by LC/MS/MS method. It counts as ADME, organism-based.
The subject of data set [7] is Mus musculus. Put plainly: Volume of distribution at steady state in C57BL/6 mouse at 1 mg/kg, ip by LC/MS/MS method. It counts as ADME, organism-based. The note with it: in vivo.
Data set [8] is described as follows: Cmax in C57BL/6 mouse at 2 mg/kg, po by LC/MS/MS method. It is filed as ADME, organism-based. On the set-up: dose 2 mg/kg, route oral. The note with it: in vivo.
Data set [9] deals with Mus musculus. Put plainly: Dose normalized AUC (0 to infinity) in C57BL/6 mouse at 2 mg/kg, po by LC/MS/MS method. It is filed as ADME, organism-based. The following applies: in vivo.
The nature of data set [10]: Oral bioavailability in C57BL/6 mouse at 2 mg/kg by LC/MS/MS method. It is filed as ADME, organism-based. The note with it: in vivo.
Data set [11] deals with Mus musculus. Put plainly: Dose normalized AUC (0 to infinity) in C57BL/6 mouse at 10 mg/kg, po by LC/MS/MS method. It is filed as ADME, organism-based. The note with it: in vivo.
Data set [12] is filed under the species Mus musculus. The note with it: C57BL/6 (B6), 1 to 10 mg/kg.
Description: Inhibition of disease severity in C57BL/6 (B6) mouse model of experimental autoimmune encephalomyelitis at 1 to 10 mg/kg, po qd dosed starting from day of immunization
The nature of data set [13]: Ratio of AUC (0 to 4 hrs) in brain to blood of C57BL/6 mouse at 2 mg/kg, ip by LC/MS/MS method. It counts as ADME, organism-based.

pIC50: −log10 of the molar value. Bounds are passed on as bounds.

As usually defined, the AUC(0-t) is the area under the concentration-time curve up to a stated or last time point. Turning to `NS(=O)(=O)c1ccc(CC(=O)Nc2cc(Cl)c(-c3ccccc3OC(F)(F)F)c(Cl)c2)cc1`, the IC50 in data set [1] is 7.94 nM. Further, the AUC(0-t) at 4 h in data set [2] was 388 ng·h/mL; in data set [3], 4880 ng·h/mL.

Broadly, the pIC50 is the negative decadic logarithm of the IC50, by convention in mol/L. `CCS(=O)(=O)c1ccc(CC(=O)Nc2cccc(-c3cc(Cl)ccc3Cl)n2)cc1`: the pIC50 in data set [4] was < 4.60.

On to `CCS(=O)(=O)c1ccc(CC(=O)Nc2ccc(-c3ccccc3OC(F)(F)F)c(C(C)=O)c2)cc1`, for which the IC50 in data set [1] is 2510 nM.

Take `CCS(=O)(=O)c1ccc(CC(=O)Nc2ccc(-c3ccccc3OC(F)(F)F)c(-c3cncnc3)c2)cc1`: in data set [1], the IC50 is < 31.6 nM.

As for `CS(=O)(=O)c1ccc(CC(=O)Nc2ccc(-c3ccc(Cl)cc3OC(F)(F)F)c(F)c2)cc1`, the IC50 in [1] was 50.1 nM. Besides, the values for the AUC(0-t) at 4 h in [2] and in data set [3] were 2350 ng·h/mL and 2020 ng·h/mL, respectively.

In the case of `CCS(=O)(=O)c1ccc(CC(=O)Nc2ccc(-c3ccc(Cl)cc3OC(F)(F)F)c(Cl)c2)cc1`, in data set [1], the IC50 is 7.94 nM. For the same molecule, the AUC(0-t) at 4 h was determined as 1760 ng·h/mL in [2] and 881 ng·h/mL in data set [3].

`CCS(=O)(=O)c1ccc(CC(=O)Nc2ccc(-c3ncccc3C(F)(F)F)c(Cl)c2)cc1`: the IC50 in data set [1] is > 5010 nM.

As to `CCS(=O)(=O)c1ccc(CC(=O)Nc2ccc(-c3ccccc3OC(F)(F)F)nc2)cc1`, the IC50 in [1] is 7940 nM.

On to `CCS(=O)(=O)c1ccc(CC(=O)Nc2ccc(-c3ccccc3Cl)c(Cl)c2)cc1`, for which the IC50 in data set [1] is 1000 nM.

A word on the half-life: it is the time needed for the level to fall by half in the phase considered. A higher half-life goes with slow loss. The term CL/F denotes the apparent clearance, not corrected for the fraction that reaches the circulation. The Cmax is the maximum level reached in the sampled fluid or tissue. For the molecule `CCS(=O)(=O)c1ccc(CC(=O)Nc2ccc(-c3ccccc3OC(F)(F)F)c(Cl)c2)cc1`, in data set [1], the IC50 was 79.4 nM. The molecule also gave a half-life in [5] of 4.2 h. Further, in data set [6], the CL/F came out at 11.6 mL/min/kg. The molecule further yielded a Vdss in the data set on Mus musculus [7] of 3.8 L/kg. This molecule gave a Cmax in data set [8] of 203 ng/mL. This molecule also yielded an AUC/dose in the data set on Mus musculus [9] of 1313 ng·h/mL/mg/kg. In addition, the bioavailability in [10] was 102%.

Turning to `CCS(=O)(=O)c1ccc(CC(=O)Nc2ccc(-c3ccccc3OC(F)(F)F)c(-c3ccno3)c2)cc1`, the IC50 in data set [1] is 63.1 nM.

With `CCS(=O)(=O)c1ccc(CC(=O)Nc2cc(C)c(-c3ccccc3OC(F)(F)F)c(Cl)c2)cc1`, the IC50 in data set [1] was < 3.16 nM.

For `CCS(=O)(=O)c1ccc(CC(=O)Nc2ccc(-c3ccccc3OC(F)(F)F)c(C)c2)cc1`, the IC50 in data set [1] is 25.1 nM.

Regarding `CCS(=O)(=O)c1ccc(CC(=O)Nc2ccc(-c3ccccc3OC(C)C)c(Cl)c2)cc1`, the IC50 in [1] was 79.4 nM.

For `CCS(=O)(=O)c1ccc(CC(=O)Nc2cc(Cl)c(-c3ccccc3OC(F)(F)F)c(Cl)c2)cc1`, the AUC(0-t) at 4 h in data set [2] came to 946 ng·h/mL; in data set [3], 1220 ng·h/mL.

For `CCS(=O)(=O)c1ccc(CC(=O)Nc2nnc(-c3cc(Cl)ccc3Cl)s2)cc1`, in [4], the pIC50 is < 4.60.

As for `Cc1cc(NC(=O)Cc2ccc(S(C)(=O)=O)cc2)ccc1-c1ccc(Cl)cc1OC(F)(F)F`, the IC50 in data set [1] was 63.1 nM. For the same molecule, the AUC(0-t) at 4 h was determined as 3520 ng·h/mL in data set [2] and 2400 ng·h/mL in data set [3]. This molecule also registered an AUC/dose in the data set with Mus musculus [11] of 4048 ng·h/mL/mg/kg. Besides, in the data set listed under Mus musculus [12], the inhibition entry is “Dose-dependent effect”.

The term Kp denotes tissue or fluid exposure divided by exposure in the circulation. With `CCS(=O)(=O)c1ccc(CC(=O)Nc2nc(-c3cc(Cl)ccc3Cl)cs2)cc1`, the Kp in data set [13] is 1.5.

In the case of `CCS(=O)(=O)c1ccc(CC(=O)Nc2cc(Cl)c(-c3ccccc3OC(F)F)c(Cl)c2)cc1`, the IC50 in data set [1] is 10 nM. The AUC(0-t) at 4 h was 462 ng·h/mL in data set [2] and 1180 ng·h/mL in [3].

On to `CS(=O)(=O)c1ccc(CC(=O)Nc2cc(Cl)c(-c3ccccc3OC(F)(F)F)c(Cl)c2)cc1`, for which the AUC(0-t) at 4 h came out at 658 ng·h/mL in [2] and 835 ng·h/mL in data set [3]. The molecule further showed a half-life in [5] of 9.7 h. The CL/F in [6] was 5.5 mL/min/kg. For the same molecule, in the data set with Mus musculus [7], the Vdss was 4.4 L/kg. Also, the Cmax in data set [8] came out at 214 ng/mL. Also, the AUC/dose in the data set with Mus musculus [9] was determined as 2465 ng·h/mL/mg/kg. In [10], the bioavailability was found to be 100%.

For the molecule `CCS(=O)(=O)c1ccc(CC(=O)Nc2cc(Cl)c(-c3ccc(F)cc3C#N)c(Cl)c2)cc1`, in [1], the IC50 was 158 nM. In addition, the figures for the AUC(0-t) at 4 h in [2] and in data set [3] were 76 ng·h/mL and 1380 ng·h/mL, respectively.

As for `CCS(=O)(=O)c1ccc(CC(=O)Nc2ncc(-c3cc(Cl)ccc3Cl)s2)cc1`, the pIC50 in data set [4] is < 4.60.

As for `CCS(=O)(=O)c1ccc(CC(=O)Nc2ccc(-c3ccccc3OC(F)(F)F)cc2)cc1`, the IC50 in data set [1] was 158 nM.

On to `CCS(=O)(=O)c1ccc(CC(=O)Nc2cc(Cl)c(-c3ccccc3C#N)c(Cl)c2)cc1`, for which the IC50 in [1] is 79.4 nM. For the same molecule, the values for the AUC(0-t) at 4 h in [2] and in data set [3] were 200 ng·h/mL and 1930 ng·h/mL, respectively.

As to `CS(=O)(=O)c1ccc(CC(=O)Nc2ccc(-c3ccc(Cl)cc3OC(F)(F)F)c(Cl)c2)cc1`, in data set [1], the IC50 was 25.1 nM. Moreover, the AUC(0-t) at 4 h in [2] amounted to 1700 ng·h/mL; in data set [3], 1730 ng·h/mL.

For the molecule `CCS(=O)(=O)c1ccc(CC(=O)Nc2cc(Cl)c(-c3ccccc3OC(F)(F)F)c(C#N)c2)cc1`, in data set [1], the IC50 is 31.6 nM.

`CCS(=O)(=O)c1ccc(CC(=O)Nc2ccc(-c3ccccc3)cc2)cc1`: the IC50 in [1] is > 10000 nM.

Take `CCS(=O)(=O)c1ccc(CC(=O)Nc2ccc(-c3ccccc3CN(C)C)c(Cl)c2)cc1`: in data set [1], the IC50 was > 10000 nM.

`CCS(=O)(=O)c1ccc(CC(=O)Nc2ccc(-c3ccccc3C(F)(F)F)c(Cl)c2)cc1`: the IC50 in data set [1] was 200 nM. The molecule further gave a half-life in data set [5] of 2.2 h. In addition, in data set [6], the CL/F is 17.6 mL/min/kg. Besides, the Vdss in the data set with Mus musculus [7] was 3.2 L/kg. Further, the Cmax in data set [8] came out at 211 ng/mL. In addition, the AUC/dose with Mus musculus [9] came to 713 ng·h/mL/mg/kg. For the same molecule, the bioavailability in [10] turned out to be 75%.

For the molecule `CCS(=O)(=O)c1ccc(CC(=O)Nc2ccc(-c3ccccc3)c(Cl)c2)cc1`, in [1], the IC50 is 6310 nM.

As to `CCS(=O)(=O)c1ccc(CC(=O)Nc2ccc(-c3ccccc3OC(F)(F)F)c(C(F)(F)F)c2)cc1`, in data set [1], the IC50 was 126 nM.

Turning to `CCS(=O)(=O)c1ccc(CC(=O)Nc2ccc(-c3cccn3C)c(Cl)c2)cc1`, the IC50 in data set [1] is > 6310 nM.

On to `CCS(=O)(=O)c1ccc(CC(=O)Nc2ccc(-c3ccccc3OC(F)(F)F)c(C(=O)O)c2)cc1`, for which the IC50 in [1] was > 10000 nM.

Source of the values: ChEMBL document CHEMBL3608273, “Discovery of Biaryl Amides as Potent, Orally Bioavailable, and CNS Penetrant RORγt Inhibitors” (ACS Med Chem Lett, 2015).
